Patent US12435071B2, “Bryostatin compounds and methods of preparing the same” (priority 2016, dated 2025)
Like-named read-outs stand apart in the source and are kept apart here.

Columns and labels:
PKC beta-I = target: T1, PKC beta-I (Homo sapiens, UniProt P05771); assay: PKC binding assay, competition with 3H-PDBu (glass-fiber filtration)
T1 construct: purchased Invitrogen
Method: (§1) This procedure entails a glass-fiber filtration method to determine bound radioligand. PKC-beta-I and PKC-delta were selected for preliminary evaluation. The former is a member of the conventional PKC subfamily while the latter is a member of the novel PKC sub-family (A. C. Newton. Protein Kinase C: Structure, Function, and Regulation. J. Biol. Chem. 270, 28495-28498 (1995)).
(§2) To a 50 mL polypropylene tube was added Tris-HCl (pH 7.4, 1 M, 1 mL), KCl (1 M, 2 mL), CaCl2 (0.1 M, 30 μL), and bovine serum albumin (40 mg, Sigma-Aldrich). This mixture was diluted to 20 mL with deionized H2O and mixed gently. The buffer was stored on ice until use.
(§3) For every two assays, 3.5 mg phosphatidylserine (Avanti Polar Lipids, porcine, 25 mg/mL CHCl3 solution) was concentrated by removing chloroform under a stream of nitrogen followed by reduced pressure. The solid P S was suspended as vesicles in freshly prepared PKC binding assay buffer (3.5 mL) by sonicating six times for 30 sec, with a 30 sec rest between sonications (Branson Sonifier 250, power=2, 50% duty cycle). The resulting milky cloudy mixture (1 mg/mL) was stored on ice until use.
(§4) Assay PKC was prepared by dissolving a 4 μg aliquot of the indicated recombinant human PKC isoform (Invitrogen) into 11.6 mL of PKC binding assay buffer (this amount is sufficient for two assays). The diluted PKC was stored on ice for immediate use.
(§5) The resulting 500 nM stock solution was further diluted with DMSO to 30 nM.
(§6) Compound dilutions were prepared by serially diluting from a chosen “high” concentration by factors of 3 or 4. For each analog compound, seven concentrations were used to define the inhibition curve (i.e. for exocyclic alkene 34, the analog concentrations used were 3000 nM, 750 nM, 188 nM, 46.9 nM, 11.7 nM, 2.93 nM, and 0.73 nM).
(§7) The resulting solution was vortexed to mix and stored on ice.
(§8) • Glass-fiber filters (Whatman GF/B) were prepared by soaking them in a solution of aqueous polyethyleneimine (10% by vol, 18 mL) in deionized water (600 mL) for >1 h. • 500 mL “rinsing buffer” of 20 mM Tris, pH 7.4 was cooled on ice for the duration of the incubation period and for the remainder of the assay.
(§9) Triplicate data points were obtained for each analog concentration. […]
(§10) The resulting filters had circular perforations for each data point, which were removed with forceps and placed in a scintillation vial. Scintillation vials were filled with Bio-Safe II scintillation fluid (5 mL) and measured for radioactivity using a Beckman LS 6000SC scintillation counter. […] The data were plotted—cpm vs. log(concentration)—using Prism® by GraphPad Software and an IC50 was determined using that program's built-in one-site competition least squares regression function.

PKC delta = target: T2, PKC delta (Homo sapiens, UniProt Q05655); assay: as above; settings: recombinant human PKC isoform, parentheses = 95% confidence interval
T2 construct: purchased Invitrogen
T2 sequence (Q05655 whole entry, canonical isoform): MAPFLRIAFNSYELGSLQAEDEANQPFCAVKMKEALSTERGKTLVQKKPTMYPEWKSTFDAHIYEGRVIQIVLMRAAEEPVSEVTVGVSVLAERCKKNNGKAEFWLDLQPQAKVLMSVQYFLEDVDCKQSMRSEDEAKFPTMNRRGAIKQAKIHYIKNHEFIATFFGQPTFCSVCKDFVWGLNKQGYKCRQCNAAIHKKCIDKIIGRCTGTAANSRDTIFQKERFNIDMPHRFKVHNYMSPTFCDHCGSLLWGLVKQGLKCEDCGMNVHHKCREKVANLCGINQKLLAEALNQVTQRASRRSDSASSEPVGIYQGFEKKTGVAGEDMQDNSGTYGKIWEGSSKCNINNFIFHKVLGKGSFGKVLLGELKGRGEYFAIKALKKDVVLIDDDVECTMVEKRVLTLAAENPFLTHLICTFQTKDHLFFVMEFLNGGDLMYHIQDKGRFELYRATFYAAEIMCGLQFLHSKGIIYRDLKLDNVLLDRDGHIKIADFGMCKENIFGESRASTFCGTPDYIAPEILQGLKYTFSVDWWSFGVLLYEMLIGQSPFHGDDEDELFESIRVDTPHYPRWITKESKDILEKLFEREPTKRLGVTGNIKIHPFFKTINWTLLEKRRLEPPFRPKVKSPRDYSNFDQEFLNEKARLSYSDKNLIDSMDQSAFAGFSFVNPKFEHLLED
Method: as §1, §2, §3, §4, §5, §6, §7, §8, §9, §10

[1] = recombinant human PKC isoform, competition with 3H-PDBu, parentheses = 95% confidence interval, read-out: PKC Ki (nM) beta-1

T1 sequence (P05771 whole entry): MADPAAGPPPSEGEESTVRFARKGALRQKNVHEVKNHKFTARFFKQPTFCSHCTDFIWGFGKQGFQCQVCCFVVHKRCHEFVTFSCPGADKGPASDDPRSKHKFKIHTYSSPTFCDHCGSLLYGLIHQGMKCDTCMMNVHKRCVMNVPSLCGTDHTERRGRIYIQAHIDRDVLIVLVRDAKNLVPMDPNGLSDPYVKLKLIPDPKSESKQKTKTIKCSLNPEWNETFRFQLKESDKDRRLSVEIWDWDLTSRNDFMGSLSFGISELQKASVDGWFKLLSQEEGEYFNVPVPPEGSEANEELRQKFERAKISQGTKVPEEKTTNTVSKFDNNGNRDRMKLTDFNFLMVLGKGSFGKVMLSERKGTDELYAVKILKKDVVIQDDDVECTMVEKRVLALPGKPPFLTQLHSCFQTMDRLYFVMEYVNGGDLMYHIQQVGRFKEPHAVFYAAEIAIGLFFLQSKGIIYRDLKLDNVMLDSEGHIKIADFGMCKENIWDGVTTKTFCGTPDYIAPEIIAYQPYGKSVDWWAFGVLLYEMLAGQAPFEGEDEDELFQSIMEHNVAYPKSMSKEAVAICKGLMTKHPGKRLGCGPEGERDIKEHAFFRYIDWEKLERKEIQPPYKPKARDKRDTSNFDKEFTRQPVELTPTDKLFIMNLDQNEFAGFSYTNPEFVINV

CCC/C=C/C=C/C(=O)O[C@H]1/C(=C/C(=O)OC)C[C@H]2CC([C@@H](C)O)OC(=O)C[C@@H](O)C[C@@H]3C[C@H](OC(C)=O)C(C)(C)[C@](O)(C[C@@H]4C/C(=C\C(=O)OC)C[C@H](/C=C/C(C)(C)[C@]1(O)O2)O4)O3 (stereo partly shown) [(E)-enoate 35]
Ki (PKC beta-I): 12 nM

C=C1C[C@H]2C[C@]3(O)O[C@H](C[C@H](O)CC(=O)OC([C@@H](C)O)C[C@@H]4C/C(=C\C(=O)OC)[C@H](OC(=O)C#CCCCCC)[C@@](O)(O4)C(C)(C)/C=C/[C@@H](C1)O2)C[C@H](OC(C)=O)C3(C)C (stereo partly shown) [alkene 34]
Ki (PKC delta): 0.76 nM
Ki (PKC beta-I; [1]): 3.9 nM

CCC/C=C/C=C/C(=O)O[C@H]1/C(=C/C(=O)OC)C[C@H]2C[C@H]([C@@H](C)O)OC(=O)C[C@H](O)C[C@@H]3C[C@H](OC(C)=O)C(C)(C)[C@](O)(C[C@@H]4C/C(=C/C(=O)OC)C[C@H](/C=C/C(C)(C)[C@]1(O)O2)O4)O3 [bryostatin 1, reference compound]
Ki (PKC beta-I; [1]): 1.6 nM
